Assay results taken from patent US8609695B2, “Methods of treating and/or suppressing insulin resistance” (Endorecherche, Inc., priority 1999, dated 2013).

How the values were obtained:
OVX Sprague-Dawley Rat = test: 11-month combination treatment DHEA + EM-800, body weight (Example 2); assay type: in vivo; conditions: OVX rats, 11 months
From the text: 1.1 Test Compounds: • DHEA: Available from Steraloids Inc. Wilton, N.H. Lot: H137; • EM-800 is synthesized at the UCPO Department of Lab. of Mol. Endo., CHUL.
1.2 Vehicle • a) Gelatin: Lab-Grade, ACP Chemicals Inc., Montreal, Qc. Lot# F0195 • b) Ethanol: Commercial Alcohols Inc., Brampton, Ontario. Lot No. 11296 • c) Polyethylene Glycol-600 (PEG-600): Omega Chemical Company Inc., Lévis, Quebec. Lot#: 00-0117-EZ • d) Normal Saline: 0.9% Sodium Chloride irrigation USP. Abbott Laboratories Limited, St-Laurent, Qc. • e) Propylene Glycol (1, 2-Propanediol, PPG): Sigma Chemical Co., St-Louis, Mo. • g) Vehicle 1: 4% ETOH-4% PEG-600-1% gelatin-0.9% NaCl—H2O for Subcutaneous Injection. • h) Vehicle 2: 50% ETOH-50% PPG for Topical Application.
3.1 Perapartion of Vehicle and Test Articles • a) Preparation of EM-800: • EM-800 or both of them will be dissolved in ETOH:PEG-600 (1:1) with agitation on Fisher Scientific Stirring Hot Plate, then, 1% GNS will be added to the required volume. • b) Preparation of DHEA: • DHEA is dissolved in 50% ETOH, 50% PPG by agitation.
3.2 Animal Preparation and Treatments • Animals will be treated once daily as indicated on Item 6.1. DHEA, prepared in 50% ETOH, 50% PPG, will be percutaneously applied (P.C.) to corresponding animals once daily (I.D.) in a volume of 0.5 ml. […]

[1] = test system: lean and obese Zucker male rats; test: Energy balance and lipid-lipoprotein metabolism in Zucker male rats (Example 8A); assay type: in vivo, Rattus norvegicus; conditions: for Lipoprotein lipase activity White retroperitoneal / Lipoprotein lipase activity soleus / Plasma glucose / Plasma insulin / Plasma total cholesterol / Plasma triglycerides / Weight gain: 2.5 mg/kg orally once daily, 14 days; for decrease of body weight gain / reduction of plasma insulin: 2.5 mg/kg/day
Experimental: The objective of this study was to determine the effect of EM-652.HCl on energy balance and lipid-lipoprotein metabolism in lean and obese Zucker male rats. For this purpose, EM-652.HCl (2.5 mg/kg) was administered orally (gavage) once daily for 14 days to intact lean and obese Zucker male rats.
d) Diet: During the acclimation period, rats received a commercial rodent diet (Purina, #5075) and tap water ad libitum. During study period, rats received the following diet (diet #3) composed of (g/100 g): Starch, 31.2; Dextrose, 31.2; Casein, 20.0; Corn oil, 6.4; dl-Methionine, 0.3; Vitamin mix, 1.0; AIN-76 mineral mix, 4.9; Fiber, 5.0.
Test groups: Sixteen lean and sixteen obese intact male rats were assigned to 4 groups of 8 rats for conduct of the study outlined below
Administration of the tested compound or vehicle started on Day 1 of the study. The tested compound EM-652.HCl was given as suspension in 0.4% methylcellulose by oral gavage (0.5 ml/gavage/rat) once daily for 14 days. Rats from control groups received the vehicle alone (0.5 ml/gavage/rat) for the same time period.
During the acclimation period, animals were weighed one day prior to the start of dosing for randomization. Then, rats were weighed on the first dosing day and every 2 days thereafter as well as on the day of necropsy. Body weights were recorded with a precision of 1 g.
Following an approximative 6-hour fasting period, animals were necropsied (approximately 30 hours after the last dosing). They were anesthesized with ketamine-xylazine and blood drawn by cardiac punction.
Blood lipids (Total cholesterol (CHOL) and Triglycerides (TG)) and glucose were measured on frozen plasma samples using the Boehringer Mannheim Diagnostic Hitachi 911 Analyzer (Boehringer Mannheim Diagnostic Laboratory Systems). Circulating hormones and substrates (Leptin, Insulin) were measured on frozen plasma samples with the following kits: • Leptin: Linco RLA kit • Insulin: Linco RIA kit Organs and Tissues Collected:
The retroperitoneal adipose tissue and the soleus (muscle) were collected and frozen in liquid nitrogen for further determination of lipoprotein lipase (LPL) activity. The prostate, testes (right and left together) and right seminal vesicle (empty of fluid) were weighed. The right seminal vesicles were discarded.

SMILES	inhibition of the OVX stimulation of body weight (OVX Sprague-Dawley Rat; DHEA 12.5 mg daily, EM-800 daily)	Total weight (OVX Sprague-Dawley Rat; DHEA 12.5 mg/day/rat percutaneous, EM-800 100 μg/day/rat s.c.)	Lipoprotein lipase activity White retroperitoneal ([1]; lean Zucker male rats)	Lipoprotein lipase activity soleus ([1]; lean Zucker male rats)	Plasma glucose ([1]; lean Zucker male rats)	Plasma insulin ([1]; lean Zucker male rats)	Plasma total cholesterol ([1]; lean Zucker male rats)	Plasma triglycerides ([1]; lean Zucker male rats)	Weight gain ([1]; lean Zucker male rats)	decrease of body weight gain ([1]; lean male Zucker rats)	reduction of plasma insulin ([1]; lean male Zucker rats)	Lipoprotein lipase activity White retroperitoneal ([1]; obese Zucker male rats)	Lipoprotein lipase activity soleus ([1]; obese Zucker male rats)	Plasma glucose ([1]; obese Zucker male rats)	Plasma insulin ([1]; obese Zucker male rats)	Plasma total cholesterol ([1]; obese Zucker male rats)	Plasma triglycerides ([1]; obese Zucker male rats)	Weight gain ([1]; obese Zucker male rats)	decrease of body weight gain ([1]; obese male Zucker rats)	reduction of plasma insulin ([1]; obese male Zucker rats)
C[C@]12CC[C@H](O)CC1=CC[C@@H]1[C@@H]2CC[C@]2(C)C(=O)CC[C@@H]12 [DHEA, dehydroepiandrosterone]	87%	490.8 ± 24.1 g																		
CC1=C(c2ccc(O)cc2)[C@H](c2ccc(OCCN3CCCCC3)cc2)Oc2cc(O)ccc21.Cl [EM-652.HCl, (S)-(+)-7-hydroxy-3-(4′-hydroxyphenyl)-4-methyl-2-(4″-(2′″-piperidino-ethoxy)phenyl)-2H-1-benxopyran hydrochloride]			1701 ± 348 μU/g protein	69.5 ± 8.4 μU/g protein	9.35 ± 0.51 mmol/L	0.062 ± 0.005 nmol/L	1.18 ± 0.09 mmol/L	1.52 ± 0.13 mmol/L	44.9 ± 3.5 g	38%	35%	7046 ± 1185 μU/g protein	58.1 ± 4.6 μU/g protein	11.84 ± 0.62 mmol/L	0.475 ± 0.087 nmol/L	2.28 ± 0.25 mmol/L	7.16 ± 1.06 mmol/L	71.6 ± 3.3 g	35%	57%
